Measurements as given in patent publication US7598223B2, “Methods for producing target cell reactive lymphocytes” (The Board of Trustees of the Leland Stanford Junior …, priority 2004, dated 2009).

Legend:
T2 cells [1] = assay: Determination of recognition efficiency (RE): 51Cr-release lysis of peptide-pulsed T2 targets by CTL clones; assay type: cell-based, human; conditions: for RE score (negative log10 of the peptide concentration required for 40% specific lysis): peptide-pulsed T2 cells, E:T ratio 10:1; for Mean RE (weighted): target cells pulsed with native peptide
Experimental: FIGS. 3A-3J. […] All assays were performed in triplicate and each clone was assayed twice. Error bars reflect variation between two separate assays. 3a.-c. CTL clones 476.105 and 132.1 were assayed for lysis of T2 cells pulsed with 10-fold dilutions of a. native or c. heteroclitc peptide at concentrations ranging from 100 fg/ml to 100 ng/ml. b. CTL clones 476.105 and 132.1 were assayed for lysis of Malme-3M melanoma cells. d.-e. […] Endogenous (461 and 132) and vaccine-induced (517, 520, 422 and 476) CTL clones were compared for RE in lysing target cells. f-g. […] Mean RE (weighted) for each response is indicated with horizontal bars. Weighted means were based on all clones, not only those assayed, and were estimated by summing the RE of each analyzed clone multiplied by the number of total clones expressing the same V-beta in each patient.
2. […] The E:T ratio was based upon live T and target cells. For each T cell clone, % cytotoxicity was plotted against peptide concentration. The peptide concentration at which the curve crosses 40% cytotoxicity was defined as the RE of that clone (Marguiles, Nat. Immunol. (2001) 2:669-670.
Similar RE assays were performed for the remaining clones from each patient selected for analysis. In order to compare REs of various CTL lines, each clone was assigned an RE score expressed as the negative log10 value of the peptide concentration required for 40% percent specific lysis at an E:T ratio of 10:1. […] We estimated the composite RE of the overall TAA-specific response (composed of a heterogeneous population of T cells) in vivo by summing the RE of each clone multiplied by its representation in the original mixture (the representation was estimated based on the proportion of TAA-specific cells expressing the same V-beta as the clone).

T2 cells [2] = assay: Micro-cytotoxicity 51Cr-release assay with tetramer+/CD8+ cells sorted from PBMC of patient 422; assay type: cell-based, human; conditions: patient 422 G209-2M tetramer+ cells; peptide 1 μg/ml; 4 hours
Source text: Six patients with T cell responses specific for MART-1 or gp100 were selected for analysis. PBMC from each patient were stained with PE-conjugated peptide-MHC tetramers: G209-2M-tet PE or M26-tet PE, and co-stained with anti-CD8 FITC and anti-CD14, -CD19, and -CD4 Cy5PE. The plots shown are gated for CD14-, CD19-, and CD4-cells. Tetramer+/CD8+ cells are boxed. […] Micro-cytotoxicity ^51Cr-release assay with tetramer+/CD8+ cells isolated by FACS from the PBMC from patient 422. Isolated cells were assayed for lysis of T2 cells treated with relevant (G209-2M, G209n) or irrelevant (CMV) peptide, or mel 526 melanoma cells. Sorted cells were combined with 250 target cells at 13:1 E:T ratios for 4 hours and supernatants were assayed for percent specific release of radio-label.
Microcytotoxic assay: Cells were isolated directly from PBMC from patient 422 by FACS as described above. Cells were collected in microfuge tubes containing 1 ml ice cold 90% IMDM, with 10% FBS. Collected cells were washed and resuspended to 83,300 cells/ml in 90% IMDM, with 10% FBS. Targets were prepared as described above and resuspended to 8,300 cells/ml in 90% IMDM, with 10% FBS. […] Percent specific release of ^51Cr was calculated from 40 μl cell-free supernatant.

[3] = target: tetramer+ CD8+ T cells of patient 422 (their T cell receptors); assay: flow cytometry, tetramer staining of patient PBMC
[4] = target: tetramer+ CD8+ T cells of patient 476 (their T cell receptors); assay: flow cytometry, tetramer staining of patient PBMC
[5] = target: tetramer+ CD8+ T cells of patient 132 (their T cell receptors); assay: flow cytometry, tetramer staining of patient PBMC
[6] = target: tetramer+ CD8+ T cells of patient 461 (their T cell receptors); assay: flow cytometry, tetramer staining of patient PBMC
[7] = target: tetramer+ CD8+ T cells of patient 517 (their T cell receptors); assay: flow cytometry, tetramer staining of patient PBMC

ITDQVPSFV (SEQ ID NO:1) (syArtificial Sequence) [G209n, native G209n peptide; agonist]
RE score (negative log10 of the peptide concentration required for 40% specific lysis) (T2 cells [1]; CTL clone 132.1): 11.1
RE score (negative log10 of the peptide concentration required for 40% specific lysis) (T2 cells [1]; CTL clone 476.105): 8.3
Mean RE (weighted) (T2 cells [1]; CTL clones of patient 132 (endogenous)): 11.2
Mean RE (weighted) (T2 cells [1]; CTL clones of patient 422 (vaccine-induced)): 9.7
Mean RE (weighted) (T2 cells [1]; CTL clones of patient 476 (vaccine-induced)): 9.9
Lysis of peptide-pulsed T2 cells by directly isolated tetramer+ T cells (T2 cells [2]): specifically lysed

HLA-A*0201/G209-2M peptide tetramer-phycoerythrin (from UniProt P61769 21-119) (peptide-MHC)
estimated percentage of total CD8+ cells that are also tetramer+/CD8+ [3]: 2.5%
estimated percentage of total CD8+ cells that are also tetramer+/CD8+ [4]: 0.31%
estimated percentage of total CD8+ cells that are also tetramer+/CD8+ [5]: 0.22%

HLA-A*0201/M26 peptide tetramer-phycoerythrin (from UniProt P61769 21-119) (peptide-MHC)
estimated percentage of total CD8+ cells that are also tetramer+/CD8+ [6]: 0.5%
estimated percentage of total CD8+ cells that are also tetramer+/CD8+ [7]: 0.23%

ITAQVPSFV (SEQ ID NO:2) [G209-3A]
Activation of G209-specific target cell lysis by T cell clones (T2 cells [1]; any concentrations, data not shown): does not activate

IMDQVPSFV (SEQ ID NO:4) [G209-2M, heteroclitic peptide vaccine gp100 209-217 (210M), reference compound]
RE score (negative log10 of the peptide concentration required for 40% specific lysis) (T2 cells [1]; CTL clone 132.1): 11.2
RE score (negative log10 of the peptide concentration required for 40% specific lysis) (T2 cells [1]; CTL clone 476.105): 11.2
Lysis of peptide-pulsed T2 cells by directly isolated tetramer+ T cells (T2 cells [2]): specifically lysed
